Test results reported in publication PMC5986654, “Combined HAT/EZH2 modulation leads to cancer-selective cell death” (Oncotarget, 2018).

Legend:
HCT116 colon carcinoma = HCT116 colon carcinoma xenograft, tumor volume; type: in vivo, mice; settings: 10 mg/Kg i.p., day 19
Method: HCT116 cell line was grown in McCoy’s medium, supplemented with 10% inactivated FBS, 2 mM glutamine and standard concentration of antibiotics. 7- to 8-week-old male CD1 nude athymic mice were purchased from Charles River and under pathogen-free conditions in accordance with European Directives no. 2010/63 and with Italian D.L. 26/2014. Mice were injected subcutaneously into the right flank with 4 × 10^6 of HCT116 cells; tumor volume (mm^3) was evaluated three times a week by caliper using the formula Dmax x dmin^^2/2, where ‘d’ and ‘D’ are the shortest and the longest diameters, respectively. For all experiments, mice were randomly divided (n = 7) and intra-peritoneal injected by day five every day with: vehicle sesame oil/DMSO 6%; MC2884 10 mg/Kg in sesame oil/DMSO 6%. Mice were sacrificed after 20 days of drug treatment and tumors explanted for immunohistochemical analyses. For HCT116-DKO colon cancer, 6 × 10^6 cells were injected.

CYP3A4 = molecular target: T1, CYP3A4 (Homo sapiens, UniProt P08684); assay: Cytochrome P450 inhibition, CYP3A4; type: in vitro ADME; settings: probe midazolam (2.5 µM), human liver microsomes, observed only at 25 μM
T1 construct: from tissue; host or cells: human liver microsomes
T1 sequence (P08684 whole entry): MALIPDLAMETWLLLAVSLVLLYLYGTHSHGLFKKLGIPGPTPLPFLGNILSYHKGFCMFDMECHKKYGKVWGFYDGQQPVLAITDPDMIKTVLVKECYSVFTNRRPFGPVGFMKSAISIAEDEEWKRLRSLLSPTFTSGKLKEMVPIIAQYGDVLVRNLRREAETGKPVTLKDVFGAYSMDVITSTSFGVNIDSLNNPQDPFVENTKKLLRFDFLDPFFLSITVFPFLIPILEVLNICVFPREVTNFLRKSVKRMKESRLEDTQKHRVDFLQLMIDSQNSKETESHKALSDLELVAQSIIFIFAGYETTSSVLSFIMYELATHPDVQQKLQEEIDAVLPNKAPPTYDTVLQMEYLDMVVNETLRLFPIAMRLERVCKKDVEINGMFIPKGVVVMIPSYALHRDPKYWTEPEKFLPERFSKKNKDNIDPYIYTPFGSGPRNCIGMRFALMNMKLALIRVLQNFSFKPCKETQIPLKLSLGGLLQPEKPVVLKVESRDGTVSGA
Method: This provided a dose of 2 mg free base material/kg when Cytochrome p450 inhibition (5 isoform iC50 administered iv in a 5 mL/kg dosing volume. determination) mouse terminal ip pK study ADME-Tox Cytochrome P450 inhibition of Compound MC2884 was given ip at a dose of 2 mg/kg MC2884 using human liver microsomes as an estimation to a group of 24 normally fed male CD1 mice in a 10 mL/ of in vitro metabolism. kg injection volume. Terminal blood samples (> 230 μL) MC2884 (0.1 μM–25 μM) was incubated with were taken under CO2 from groups of 3 mice at each of 8 human liver microsomes and NADPH in the presence time-points post dose (0.083, 0.25, 0.5, 1, 2, 4, 8 and 24 h) of a cytochrome P450 isoform-specific probe substrate. and placed into heparinized tubes. […]
All samples were stored at −20° C measuring the formation of a fluorescent metabolite. […]
Cyp2C19 inhibition (0.1 mg/mL) and NADPH (1 mM) in the presence of the probe substrate midazolam (2.5 μM) for 5 min at Six test compound samples at concentrations 37° C. […] For the CYP1A incubations, the reactions microsomes (0.5 mg/mL) and NADPH (1 mM) in the were terminated by methanol, and the formation of the presence of the probe substrate mephenytoin (25 μM) metabolite, resorufin, was monitored by fluorescence for 60 min at 37° C. […]

[1] = Stability of MC2884 in cell culture medium (RP-HPLC); type: physicochemical
Method: The compound was dissolved in DMEM at 50 µM and its concentration was measured by RP-HPLC using a ONYX 50 × 2 mm ID C18 column operating at 600 µL/min. The gradient applied was from 1% solvent B to 70% solvent B in 10 minutes. Solvent A was water with added 0.1% trifluoroacetic acid (TFA) and solvent B was acetonitrile with added 0.1% TFA. The eluate was monitored using a diode array detector with wavelengths set between 200–320 nm. The compound was eluted at 11.1 min. Peak integration was carried out on the chromatogram extracted at […], which is one of the compound absorbance maxima. A calibration curve was built by injecting solutions of the compound in DMSO at concentrations ranging between 1.5 µM and 200 µM. After incubation in DMEM compound concentration was determined at time points ranging between 0 and 72 hrs. As shown, half of compound was degraded after 10 h. At 72 hrs it was fully degraded under these conditions.

O=C1/C(=C/c2cccc(Br)c2)CN(Cc2ccccc2)C/C1=C\c1cccc(Br)c1 [MC2884]
tumor volume reduction versus untreated mice (HCT116 colon carcinoma): 90% | inhibition at 5 min, 25 µM (CYP3A4): 45% | half-life at 50 µM ([1]; DMEM cell culture medium, read-out: half-life in cell culture media (converted)): 10 h | time for total degradation in cell culture media ([1]; DMEM, 50 µM): 72 h
